Experiment [1] relates to Monoamine transporters; Norepinephrine & dopamine. As to the kind of experiment: Selectivity for DAT determined as ratio of binding affinity for NET to that for DAT. It is filed as protein assay.
The target of experiment [2] is Norepinephrine transporter (Rattus norvegicus, UniProt Q9WTR4). In words: Ability to displace [3H]- nisoxetin from Norepinephrine transporter in rat cerebral cortical homogenate.
Experiment [3] has as its target Sodium-dependent serotonin transporter (Rattus norvegicus, UniProt P31652). In words: Ability to displace [3H]- paroxetine from Serotonin transporter in rat cerebral cortical homogenate.
Experiment [4] addresses Sodium-dependent dopamine transporter (Rattus norvegicus, UniProt P23977). In words: Ability to displace [3H]- beta-CIT from Dopamine transporter in rat striatal homogenate.
Experiment [5] deals with Monoamine transporters; serotonin & dopamine. As to the kind of experiment: Selectivity for DAT determined as ratio of binding affinity for SERT to that for DAT. It is filed as protein assay.

Experimental findings from ChEMBL document CHEMBL1133860, “Synthesis and biological evaluation of a series of novel N- or O-fluoroalkyl derivatives of tropane: potential positron emission tomography (PET) imaging agents for the dopamine transporter” (Bioorg Med Chem Lett, 2001) are described below.

Sequence of Norepinephrine transporter (Q9WTR4 whole entry): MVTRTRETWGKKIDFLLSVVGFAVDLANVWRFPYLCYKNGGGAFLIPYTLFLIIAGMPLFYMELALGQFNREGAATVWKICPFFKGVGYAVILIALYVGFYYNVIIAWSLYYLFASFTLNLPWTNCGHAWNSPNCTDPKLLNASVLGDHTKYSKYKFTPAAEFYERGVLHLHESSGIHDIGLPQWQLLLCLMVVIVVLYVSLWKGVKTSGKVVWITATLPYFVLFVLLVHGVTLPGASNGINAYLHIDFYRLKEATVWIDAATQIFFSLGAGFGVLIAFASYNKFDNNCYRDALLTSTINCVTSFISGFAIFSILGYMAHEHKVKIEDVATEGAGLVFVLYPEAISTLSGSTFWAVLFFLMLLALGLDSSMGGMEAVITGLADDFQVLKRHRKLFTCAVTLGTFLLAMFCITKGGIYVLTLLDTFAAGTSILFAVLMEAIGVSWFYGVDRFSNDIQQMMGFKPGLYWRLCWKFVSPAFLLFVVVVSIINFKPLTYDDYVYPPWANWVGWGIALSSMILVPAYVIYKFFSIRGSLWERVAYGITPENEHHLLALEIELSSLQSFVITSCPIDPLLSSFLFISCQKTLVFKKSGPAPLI
Sequence of Sodium-dependent dopamine transporter (P23977 whole entry): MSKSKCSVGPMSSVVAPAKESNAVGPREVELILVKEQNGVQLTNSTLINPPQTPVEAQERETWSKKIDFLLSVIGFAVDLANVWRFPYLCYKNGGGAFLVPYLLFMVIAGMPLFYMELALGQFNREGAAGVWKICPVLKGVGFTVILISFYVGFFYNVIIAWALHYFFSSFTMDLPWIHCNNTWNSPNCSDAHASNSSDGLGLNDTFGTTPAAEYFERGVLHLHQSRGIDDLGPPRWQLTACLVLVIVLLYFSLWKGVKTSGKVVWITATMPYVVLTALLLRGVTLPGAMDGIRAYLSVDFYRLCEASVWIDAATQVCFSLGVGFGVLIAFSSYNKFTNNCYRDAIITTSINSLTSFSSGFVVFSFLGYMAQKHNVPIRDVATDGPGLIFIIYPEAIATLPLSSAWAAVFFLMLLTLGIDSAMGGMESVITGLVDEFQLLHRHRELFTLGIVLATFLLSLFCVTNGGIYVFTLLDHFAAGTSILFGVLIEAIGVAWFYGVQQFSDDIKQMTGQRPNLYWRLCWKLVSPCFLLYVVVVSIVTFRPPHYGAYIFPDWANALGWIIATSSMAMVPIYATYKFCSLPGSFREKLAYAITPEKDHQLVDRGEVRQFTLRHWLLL
Sequence of Sodium-dependent serotonin transporter (P31652 whole entry): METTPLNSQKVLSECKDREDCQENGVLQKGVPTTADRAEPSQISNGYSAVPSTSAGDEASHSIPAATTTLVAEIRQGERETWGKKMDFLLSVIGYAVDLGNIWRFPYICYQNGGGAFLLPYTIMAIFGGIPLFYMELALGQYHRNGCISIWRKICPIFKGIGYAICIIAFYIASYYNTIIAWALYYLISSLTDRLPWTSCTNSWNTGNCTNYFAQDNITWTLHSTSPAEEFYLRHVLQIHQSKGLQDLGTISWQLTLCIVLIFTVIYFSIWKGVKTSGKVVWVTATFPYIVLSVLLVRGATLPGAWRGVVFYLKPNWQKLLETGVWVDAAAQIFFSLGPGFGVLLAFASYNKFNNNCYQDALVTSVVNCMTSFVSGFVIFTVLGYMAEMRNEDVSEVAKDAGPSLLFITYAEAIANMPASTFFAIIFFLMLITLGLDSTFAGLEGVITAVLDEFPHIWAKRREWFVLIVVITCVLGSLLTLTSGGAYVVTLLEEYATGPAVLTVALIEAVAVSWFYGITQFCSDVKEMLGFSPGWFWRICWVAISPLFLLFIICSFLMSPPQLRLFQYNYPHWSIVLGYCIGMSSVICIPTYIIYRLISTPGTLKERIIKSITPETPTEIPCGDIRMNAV

In general, Ki refers to a dissociation constant, usually derived from enzyme kinetics or from competition with a known ligand. High values mean lower affinity, low ones higher affinity. Take `Cc1ccc(C2CC3CCC(C2C(=O)OCCCF)N3C)cc1` (configuration not stated): the Selectivity ratio was determined as 36.3 in experiment [1] and 45.3 in experiment [5]. Also, the values for the Ki in experiment [2], in experiment [3] and in experiment [4] were 260 nM, 325 nM and 7.17 nM, respectively.
On the same counts, the results for `COC(=O)C1C2CCC(CC1c1ccc(I)cc1)N2` (configuration not stated) are 2.9, 0.1, 1.85 nM, 0.06 nM and 0.64 nM.
For the compound `CN1C2CCC1C(C(=O)OCCCF)C(c1ccc(I)cc1)C2` (configuration not stated), the results for the Selectivity ratio in experiment [1] and in experiment [5] were 112 and 1.1, respectively. Further, the results for the inhibitory constant (Ki) in experiment [2], in experiment [3] and in experiment [4] were 173 nM, 1.65 nM and 1.54 nM, respectively.
For the compound `COC(=O)[C@@H]1C2CC[C@H](C[C@@H]1c1ccc(I)cc1)N2C`, the Selectivity ratio came out at 2.1 in experiment [1] and 0.4 in experiment [5]. Also, the inhibition constant Ki in experiment [4] was found to be 1.33 nM.
As for `COC(=O)C1C(c2ccc(C)cc2)CC2CCC1N2CCF` (configuration not stated), the Selectivity ratio worked out at 8.4 in experiment [1] and 11.7 in experiment [5]. In addition, the Ki in experiment [2] is 268 nM; in experiment [3], 375 nM; in experiment [4], 32.1 nM.
Turning to `CN1C2CCC1C(C(=O)OCCF)C(c1ccc(I)cc1)C2` (configuration not stated), the values for the Selectivity ratio in experiment [1] and in experiment [5] were 112 and 1.1, respectively. In addition, the inhibition constant (Ki) in experiment [2] is 173 nM; in experiment [3] it was 1.65 nM; in experiment [4], 0.93 nM.
In the case of `COC(=O)C1C(c2ccc(C)cc2)CC2CCC1N2CCCF` (configuration not stated), the Selectivity ratio in experiment [1] is 32.1; in experiment [5], 34.9. Further, the Ki in experiment [2] amounted to 1210 nM; in experiment [3], 1310 nM; in experiment [4], 37.6 nM.
For the compound `COC(=O)C1C(c2ccc(I)cc2)CC2CCC1N2CCCF` (configuration not stated), the results for the Selectivity ratio in experiment [1] and in experiment [5] were 7.6 and 0.2, respectively. Also, the figures for the Ki in experiment [3] and in experiment [4] were 1.68 nM and 8.29 nM, respectively.
Consider `O=C(OCCF)C1C(c2ccc(I)cc2)CC2CCC1N2CCCF` (configuration not stated), for which the Selectivity ratio in experiment [1] came out at 83; in experiment [5] it was 1.5. Also, the Ki in experiment [2] was 723 nM; in experiment [3], 13.3 nM; in experiment [4] it was 8.71 nM.
On the same counts, the results for `COC(=O)C1C(c2ccc(Br)cc2)CC2CCC1N2CCCF` (configuration not stated) are 58.9, 10.9, 196 nM, 36.4 nM and 3.33 nM.
